This note sets out measurements from ChEMBL document CHEMBL1201862, “PubChem BioAssay data set” (2004).

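Step 1: Grow cells in 96-well plates. Step 2: Expose to compound for 48 hours at 5 concentrations. Step 3: Interpolate endpoints linearly; if unreached, use highest concentration. GI50 is the concentration that inhibits growth by half.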 Active and inactive are the calls of the source. Cut-off read from the data, not from the text of the source: active = GI50 up to about 1.1 µM and inactive = higher.

Among the test systems are HCT-15; OVCAR-8; MDA-N; COLO 205; MDA-MB-231; SF-295; OVCAR-4; SNB-19; SR; U-251; KM12; RPMI-8226; SK-MEL-28; HCC 2998; SW-620; DU-145; RXF 393; CAKI-1; K562.
Common to all, as to assay: inhibition of tumour cell growth, NCI panel, 48 h

As to `CCN(CC)CCNc1ccc2nnn3c4ccc(OC(C)=O)cc4c(=O)c1c23`, the GI50 in the assay on HCT-15 was 1.46 µM; in the assay on OVCAR-8 it was 1.15 µM (inactive); in the assay with MDA-N, 4.61 µM (inactive); with COLO 205 it was 2.45 µM (inactive); in the assay with MDA-MB-231 it was 2.65 µM (inactive); with SF-295 it was 4.51 µM (inactive). The GI50 was 2.36 µM (inactive) in the assay with OVCAR-4; > 20.3 µM (inactive) with SNB-19; 0.706 µM (active) in the assay on SR; 2.22 µM (inactive) with U-251; 3.15 µM (inactive) with KM12; 1.59 µM (inactive) in the assay with RPMI-8226. In addition, the GI50 in the assay on SK-MEL-28 was 13.4 µM (inactive); with HCC 2998, 2.53 µM (inactive); in the assay on SW-620, 1.11 µM (active); in the assay on DU-145 it was 2.39 µM (inactive); in the assay on RXF 393, 1.11 µM (active); in the assay with CAKI-1, 0.378 µM (active).
For the compound `CC1=CCC2CC1NC(=O)CCOCCC(=O)NC2(C)C` (centres undefined), the GI50 was > 100 µM (inactive) in the assay on K562; greater than 100 µM in the assay on HCT-15; > 100 µM (inactive) in the assay on OVCAR-8; > 100 µM (inactive) with MDA-N; > 100 µM (inactive) with COLO 205; > 100 µM (inactive) in the assay with MDA-MB-231. In addition, the GI50 in the assay with SF-295, with OVCAR-4, with SNB-19, in the assay on SR, in the assay with U-251 and with KM12 was > 100 µM (inactive) in each case. In addition, the GI50 with RPMI-8226, in the assay on SK-MEL-28, with HCC 2998, in the assay with SW-620, with DU-145 and in the assay with RXF 393 was > 100 µM (inactive) in each case. Moreover, the GI50 with CAKI-1 was > 100 µM (inactive).
For `CC1(C)OC2C(CO)OC(n3ccc(N)nc3=O)C2O1` (centres undefined), the GI50 with K562 was > 100 µM (inactive); in the assay on HCT-15 it was greater than 100 µM; in the assay with OVCAR-8, > 100 µM (inactive); with MDA-N, > 100 µM (inactive); with COLO 205, > 100 µM (inactive); in the assay with MDA-MB-231 it was > 100 µM (inactive). Further, the GI50 with SF-295, with SNB-19, with SR, in the assay on U-251, in the assay on KM12 and in the assay on RPMI-8226 was > 100 µM (inactive) throughout. Besides, the GI50 in the assay with SK-MEL-28, in the assay with HCC 2998, with SW-620, in the assay on DU-145, with RXF 393 and with CAKI-1 was > 100 µM (inactive) throughout.
With `CC(=O)NCCC1CNc2ccccc21` (centres undefined), the GI50 with K562 is > 100 µM (inactive); in the assay with HCT-15, greater than 100 µM; in the assay on OVCAR-8, > 100 µM (inactive); with MDA-N, > 100 µM (inactive); with COLO 205, > 100 µM (inactive); in the assay with MDA-MB-231, > 100 µM (inactive). The GI50 in the assay on SF-295, in the assay on OVCAR-4, in the assay with SNB-19, in the assay with SR, in the assay on U-251 and in the assay on KM12 was > 100 µM (inactive) in each case. For the same compound, the GI50 in the assay with RPMI-8226, in the assay with SK-MEL-28, with HCC 2998, with SW-620, in the assay on DU-145 and with RXF 393 was > 100 µM (inactive) throughout. Also, the GI50 in the assay on CAKI-1 was > 100 µM (inactive).
